According to paper PMC8011931, “Identification, Structure–Activity Relationship, and Biological Characterization of 2,3,4,5-Tetrahydro-1H-pyrido[4,3-b]indoles as a Novel Class of CFTR Potentiators” (Journal of Medicinal Chemistry, 2020):

Assays:
Type in all cases: cell-based
CFTR = target: T1, CFTR (Homo sapiens, UniProt P13569); assay: Short-circuit current recordings on primary HBE cells from non-CF individuals
T1 construct: primary human bronchial epithelial (HBE) cells, from non-CF individuals; endogenous in cells; host or cells: primary human bronchial epithelial cells from non-CF individuals
Text: Subsequently, the ability of compounds to elicit CFTR-mediated chloride secretion was verified on primary human bronchial epithelial (HBE) cells, from non-CF individuals, in short-circuit current experiments. In this respect, it should be noticed that potentiators are also able to stimulate wild-type CFTR, provided that a submaximal cAMP-dependent stimulation is applied.[20],[22] Accordingly, cells were stimulated with a submaximal concentration of the cAMP analogue, CPT-cAMP, followed by increasing concentrations of the potentiator hit.[20],[22]
Finally, potentiator 39 and VX-770 were further evaluated in primary HBE cells from non-CF individuals, using short-circuit current measurements, to assess the ability of compounds to maximally activate CFTR function in the presence of a submaximal cAMP stimulation. After the addition of amiloride to inhibit sodium absorption through the ENaC channel, the potentiators were added at the maximal effective concentration (1 μM) after which epithelia were stimulated with a submaximal concentration of CPT-cAMP (5 μM), followed by a maximal concentration of the cAMP analogue (100 μM) (Figure 8). We then measured the extent of CFTR-mediated chloride current elicited by submaximal cAMP stimulation in the presence of a potentiator and compared it to total CFTR-mediated chloride current, determined as the current inhibited by CFTR inhibitor-172. In parallel, other epithelia were stimulated only with the two concentrations of the cAMP analogue, in the absence of a potentiator.
Primary bronchial epithelial cells were cultured as previously described.[58] In brief, epithelial cells were cultured in a serum-free medium (LHC9 mixed with RPMI 1640, 1:1) supplemented with hormones and supplements to support cell number amplification. Then, the cells were seeded at high density on porous membranes (500,000 cells for 1 cm^2 Snapwell inserts, for Ussing chamber studies; 200,000 cells for 0.33 cm^2 Mini-Transwell inserts, for TEER/PD measurements). After 24 h, the serum-free medium was replaced with Dulbecco’s modified Eagle’s medium (DMEM)/Ham’s F12 containing 2% fetal bovine serum (FBS) plus hormones and supplements. Differentiation of cells to form a tight epithelium was monitored by measuring transepithelial electrical resistance and potential difference with an epithelial voltohmmeter (EVOM1, World Precision Instruments). […]
Differentiated bronchial epithelia on Snapwell inserts were mounted in a Ussing chamber with internal fluid circulation. […] The short-circuit current was recorded with a PowerLab 4/25 (ADInstruments) analog-to-digital converter connected to a personal computer.

F508del-CFTR [1] = target: T2, F508del-CFTR (Homo sapiens, UniProt P13569, DEL508-508); assay: HS-YFP-based assay for CFTR activity on F508del-CFTR FRT cells rescued at 32 °C for 24 h; parameters: expressed in transfected cells; key to Emax: fold increase in F508del-CFTR rescue relative to hit 3 (normalized)
Method: The chemical library was screened in duplicate on a Fischer rat thyroid (FRT) cell line, stably coexpressing F508del-CFTR and the halide-sensitive yellow fluorescent protein, HS-YFP.[23],[34],[35] To overcome the F508del trafficking defect, cells were initially incubated for 24 h at 32 °C and then acutely treated (15–30 min) with a single compound (5 μM) in combination with forskolin (10 μM). After stimulation, the F508del-CFTR activity in the plasma membrane was calculated by measuring the rate of fluorescence quenching arising from iodide influx.[34] This activity was compared to that of wells containing forskolin alone (negative control) or forskolin plus VX-770 (1 μM, as a positive control) (Figure 2A). Analysis of screening performance with the Z′ method gave a score of 0.6, which can be considered optimal for this type of assay. The activity scores for each compound were then plotted as an ordered distribution (Figure 2B). All compounds whose average activity calculated from the two rounds of screening was greater than 185% with respect to the negative control (i.e., forskolin alone) were considered as primary hits.
The primary hits were confirmed by testing them at different concentrations, in order to extrapolate the dose–response relationship. First, we focused on the F508del mutant. The compounds were tested in the low micromolar range, in the presence of forskolin (10 μM), on F508del-CFTR FRT cells following rescue of the trafficking defect by low-temperature incubation, as done for the primary screening. The most interesting hits were subsequently tested for their ability to overcome the more severe gating defect of pure class III mutant using FRT cells stably expressing G551D-CFTR (Figure 3B).
The role of the heteroaryl group (A) acylating the position 2 of the tetrahydro-γ-carboline was initially explored by modifying the substituent on the pyrazolyl residue and replacing the pyrazole with other rings, while keeping the 8-methoxy carboline moiety unmodified. The activity of each compound is described in terms of normalized maximal efficacy (Emax), the maximum fold increase in the rescue of F508del-CFTR activity with respect to hit 3, and potency (EC50), the concentration producing half-maximal efficacy.
FRT cells stably expressing mutant F508del-CFTR or G551D-CFTR and the halide-sensitive yellow fluorescent protein (HS-YFP) YFP-H148Q/I152L and CFBE41o-cells stably expressing F508del-CFTR and HS-YFP were generated as previously described.[21],[57] FRT cells were cultured using the Coon’s modification of Ham’s F12 medium, while CFBE41o-cells were cultured in the modified Eagle’s medium. Media were supplemented with 10% fetal calf serum, 2 mM L-glutamine, 100 U/mL of penicillin, and […] of streptomycin. For functional assays of CFTR activity based on the HS-YFP assays, CFBE41o- or FRT cells were plated (50,000 cells/well) on clear-bottom 96-well black microplates (Corning Life Sciences, Acton, MA). The following day, cells were assayed. In the case of FRT cells expressing F508del-CFTR, plates were kept at 32 °C (or treated with correctors at 37 °C where indicated) for an additional 24 h to rescue the mutant trafficking defect, before assays.
Prior assay, cells were washed with phosphate-buffered saline (PBS) containing (in mM) 137 NaCl, 2.7 KCl, 8.1 Na2HPO4, 1.5 KH2PO4, 1 CaCl2, and 0.5 MgCl2. Cells were then incubated for 25 min with 60 μL of PBS plus forskolin (20 μM) and test compounds (at the desired concentration) to stimulate mutant CFTR. Cells were then transferred to microplate readers (FluoStar Optima; BMG Labtech, Offenburg, Germany) for CFTR activity determination. The plate readers were equipped with high-quality excitation (HQ500/20X: 500 ± 10 nm) and emission (HQ535/30M: 535 ± 15 nm) filters for YFP (Chroma Technology). […]

F508del-CFTR [2] = target: T2, F508del-CFTR; assay: HS-YFP assay on F508del-CFTR CFBE41o- cells, acute stimulation; parameters: expressed in transfected cells; settings: acute stimulation in the presence of forskolin, Figure 4A
Method: The preliminary activity of these three hits was further evaluated in secondary screening assays. Although featuring the same common scaffold, in order to possibly discriminate the most interesting hit for further structural investigations, the compounds belonging to the family of tetrahydro-γ-carbolines were tested on more relevant cell models. First, the hits were tested on an immortalized bronchial epithelial cell line (CFBE41o-) stably expressing F508del-CFTR and HS-YFP. […]
Prior assay, cells were washed with phosphate-buffered saline (PBS) containing (in mM) 137 NaCl, 2.7 KCl, 8.1 Na2HPO4, 1.5 KH2PO4, 1 CaCl2, and 0.5 MgCl2. […] Cells were then transferred to microplate readers (FluoStar Optima; BMG Labtech, Offenburg, Germany) for CFTR activity determination. The plate readers were equipped with high-quality excitation (HQ500/20X: 500 ± 10 nm) and emission (HQ535/30M: 535 ± 15 nm) filters for YFP (Chroma Technology). The assay consisted of a continuous 14 s fluorescence reading, 2 s before and 12 s after injection of 165 μL of an iodide-containing solution (PBS with Cl^– replaced by I^–; final I^– concentration 100 mM). Data were normalized to the initial background-subtracted fluorescence. […]

T2 sequence (P13569 with tags, fused parts or gaps DEL508-508): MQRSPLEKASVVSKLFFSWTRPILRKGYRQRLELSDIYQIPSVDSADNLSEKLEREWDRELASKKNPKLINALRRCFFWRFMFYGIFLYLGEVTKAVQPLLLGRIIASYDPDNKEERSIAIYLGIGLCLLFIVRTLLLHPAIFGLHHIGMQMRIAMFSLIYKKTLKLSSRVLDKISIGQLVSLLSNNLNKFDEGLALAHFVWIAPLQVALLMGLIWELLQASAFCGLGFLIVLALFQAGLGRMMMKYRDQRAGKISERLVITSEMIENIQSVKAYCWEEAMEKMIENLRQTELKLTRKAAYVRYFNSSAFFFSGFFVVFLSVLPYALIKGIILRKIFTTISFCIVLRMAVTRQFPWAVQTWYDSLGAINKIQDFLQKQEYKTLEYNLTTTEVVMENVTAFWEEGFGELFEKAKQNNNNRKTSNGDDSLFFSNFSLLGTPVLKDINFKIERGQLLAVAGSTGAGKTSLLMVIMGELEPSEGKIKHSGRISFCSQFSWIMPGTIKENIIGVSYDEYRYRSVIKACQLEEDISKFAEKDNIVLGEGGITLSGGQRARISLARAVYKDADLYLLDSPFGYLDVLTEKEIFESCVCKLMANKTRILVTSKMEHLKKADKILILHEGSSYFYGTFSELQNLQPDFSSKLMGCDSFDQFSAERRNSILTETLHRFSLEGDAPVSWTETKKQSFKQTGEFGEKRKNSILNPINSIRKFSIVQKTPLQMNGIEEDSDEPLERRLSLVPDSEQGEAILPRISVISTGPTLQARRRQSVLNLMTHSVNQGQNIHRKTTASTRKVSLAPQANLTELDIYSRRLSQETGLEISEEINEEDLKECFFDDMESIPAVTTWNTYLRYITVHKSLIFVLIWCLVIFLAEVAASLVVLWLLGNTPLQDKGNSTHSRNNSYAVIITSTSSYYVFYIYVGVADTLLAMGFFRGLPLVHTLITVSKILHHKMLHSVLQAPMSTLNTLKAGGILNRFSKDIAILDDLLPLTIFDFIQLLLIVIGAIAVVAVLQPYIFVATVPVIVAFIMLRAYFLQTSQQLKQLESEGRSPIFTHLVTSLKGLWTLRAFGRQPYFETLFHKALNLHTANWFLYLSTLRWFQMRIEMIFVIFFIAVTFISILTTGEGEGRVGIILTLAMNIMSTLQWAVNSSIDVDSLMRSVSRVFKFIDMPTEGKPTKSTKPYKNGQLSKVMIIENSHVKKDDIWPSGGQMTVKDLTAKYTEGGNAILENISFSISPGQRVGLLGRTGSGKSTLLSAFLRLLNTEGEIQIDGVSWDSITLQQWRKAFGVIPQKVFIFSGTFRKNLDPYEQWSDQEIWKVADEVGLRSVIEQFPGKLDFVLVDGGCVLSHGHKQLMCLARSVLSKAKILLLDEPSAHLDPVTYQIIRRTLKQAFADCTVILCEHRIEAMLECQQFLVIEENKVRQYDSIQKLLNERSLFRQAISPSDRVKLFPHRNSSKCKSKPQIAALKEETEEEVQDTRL
T1 sequence (P13569 whole entry): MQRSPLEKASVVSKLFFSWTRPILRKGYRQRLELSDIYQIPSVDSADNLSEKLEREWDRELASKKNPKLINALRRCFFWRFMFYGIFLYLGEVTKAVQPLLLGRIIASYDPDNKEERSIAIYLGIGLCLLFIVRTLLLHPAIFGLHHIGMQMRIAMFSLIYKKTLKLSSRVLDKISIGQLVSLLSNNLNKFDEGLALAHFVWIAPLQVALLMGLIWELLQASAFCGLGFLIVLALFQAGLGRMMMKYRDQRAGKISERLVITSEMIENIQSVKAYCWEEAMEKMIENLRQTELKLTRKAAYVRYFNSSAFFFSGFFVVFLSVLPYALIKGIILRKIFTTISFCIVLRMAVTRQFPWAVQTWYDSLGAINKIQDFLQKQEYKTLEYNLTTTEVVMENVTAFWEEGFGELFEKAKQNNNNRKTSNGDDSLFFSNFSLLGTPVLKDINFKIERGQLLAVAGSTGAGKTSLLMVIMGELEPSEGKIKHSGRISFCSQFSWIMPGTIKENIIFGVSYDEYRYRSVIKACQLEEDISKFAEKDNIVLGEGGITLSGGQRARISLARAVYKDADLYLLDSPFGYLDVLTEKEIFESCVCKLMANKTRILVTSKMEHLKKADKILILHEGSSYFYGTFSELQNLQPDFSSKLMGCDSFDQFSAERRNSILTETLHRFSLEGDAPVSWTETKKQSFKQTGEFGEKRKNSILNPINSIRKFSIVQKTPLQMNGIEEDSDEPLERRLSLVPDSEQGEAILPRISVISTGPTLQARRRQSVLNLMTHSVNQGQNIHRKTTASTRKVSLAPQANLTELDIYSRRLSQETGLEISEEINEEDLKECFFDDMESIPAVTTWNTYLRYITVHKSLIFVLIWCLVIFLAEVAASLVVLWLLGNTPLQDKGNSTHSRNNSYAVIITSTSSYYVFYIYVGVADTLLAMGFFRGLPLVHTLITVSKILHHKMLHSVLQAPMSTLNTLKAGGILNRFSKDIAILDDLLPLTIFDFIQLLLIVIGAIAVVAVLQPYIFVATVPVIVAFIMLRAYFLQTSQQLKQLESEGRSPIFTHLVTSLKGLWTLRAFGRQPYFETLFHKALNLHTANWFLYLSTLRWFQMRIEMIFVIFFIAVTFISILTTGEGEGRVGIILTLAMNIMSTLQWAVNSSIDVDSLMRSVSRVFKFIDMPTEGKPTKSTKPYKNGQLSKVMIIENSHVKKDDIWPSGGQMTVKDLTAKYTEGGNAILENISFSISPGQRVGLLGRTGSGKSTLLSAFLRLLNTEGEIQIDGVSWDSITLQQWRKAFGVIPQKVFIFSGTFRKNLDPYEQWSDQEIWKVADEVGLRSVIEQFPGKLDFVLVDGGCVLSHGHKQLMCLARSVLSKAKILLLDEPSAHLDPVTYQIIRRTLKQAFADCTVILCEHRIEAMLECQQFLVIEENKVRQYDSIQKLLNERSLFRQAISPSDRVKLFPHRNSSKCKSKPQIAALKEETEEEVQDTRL

Structure (SMILES) | comparison of effectiveness of potentiators (CFTR; 1 μM for both compounds, Figure 8B) | increase of the fraction of CFTR-mediated chloride current activated by submaximal cAMP stimulation (CFTR; potentiator 1 μM, CPT-cAMP 5 μM, versus no potentiator) | EC50 (F508del-CFTR [1]; F508del-CFTR FRT cells rescued at 32 °C for 24 h, plus forskolin, mean ± SD (n = 3–6), n.a.: not active (up to 20 μM)) | Emax (F508del-CFTR [1]; supplementary csv, same data as Tables 1–3) | dose-dependent activation of mutant CFTR (F508del-CFTR [2])
CC(C)(C)c1cc(C(C)(C)C)c(NC(=O)c2c[nH]c3ccccc3c2=O)cc1O [VX-770, reference compound] | similarly effective | more than 2 fold | – | – | –
CN(C)c1ccc2cc(C(=O)N3CCc4[nH]c5ccccc5c4C3)[nH]c2c1 [Compound 1, (6-(Dimethylamino)-1H-indol-2-yl)-(1,3,4,5-tetrahydro-2H-pyrido[4,3-b]indol-2-yl)methanone] | – | – | 0.12 ± 0.014 µM | 1.04 ± 0.07 | the most effective
